Experimental data: patent US20070128217A1 (priority 2003, published 2007)

Assays:
[1] = test system: antibodies in sera from SARS patients (sera 1a, 1b, 2, 6, 37, 62, London, SARS-yellow, SARS-green); format: binding, human; set-up: Binding of serum 6 to linear peptides of protein X1 of SARS-CoV Urbani / Binding of serum 37 to linear peptides of protein X1 of SARS-CoV Urbani / Binding of serum 6 to looped/cyclic peptide (PEPSCAN-ELISA) / Binding of serum 37 to looped/cyclic peptide (PEPSCAN-ELISA) / Binding of serum 37 to looped/cyclic peptides of protein X1 of SARS-CoV Urbani / Binding of serum 6 to linear peptides of protein X2 / Binding of serum 37 to linear peptides of protein X2 / Binding of serum 37 to looped/cyclic peptides of protein X2 of SARS-CoV Urbani / Binding of serum 6 to linear peptides of protein M of SARS-CoV Urbani / Binding of serum 37 to linear peptides of protein M of SARS-CoV Urbani / Binding of serum 6 to looped/cyclic peptides of protein M of SARS-CoV Urbani / Binding of serum 37 to looped/cyclic peptides of protein M of SARS-CoV Urbani / Binding of serum 6 to linear peptides of protein X3 of SARS-CoV Urbani / Binding of serum 37 to linear peptides of protein X3 of SARS-CoV Urbani / Binding of serum 37 to looped/cyclic peptides of protein X3 of SARS-CoV Urbani / Binding of serum 6 to linear peptides of protein X4 of SARS-CoV Urbani / Binding of serum 37 to linear peptides of protein X4 of SARS-CoV Urbani / Binding of serum 37 to looped/cyclic peptides of protein X4 of SARS-CoV Urbani / Binding of serum 6 to linear peptides of protein X5 of SARS-CoV Urbani / Binding of serum 37 to linear peptides of protein X5 of SARS-CoV Urbani / Binding of serum 37 to looped/cyclic peptides of protein X5 of SARS-CoV Urbani / Binding of serum 6 to linear peptides of protein N of SARS-CoV Urbani / Binding of serum 37 to linear peptides of protein N of SARS-CoV Urbani / Binding of serum 6 to linear peptide (PEPSCAN-ELISA) / Binding of serum 1a to looped/cyclic peptides of protein N of SARS-CoV Urbani / Binding of serum 1b to looped/cyclic peptides of protein N of SARS-CoV Urbani / Binding of serum 2 to looped/cyclic peptides of protein N of SARS-CoV Urbani / Binding of serum 6 to looped/cyclic peptides of protein N of SARS-CoV Urbani / Binding of serum 37 to looped/cyclic peptides of protein N of SARS-CoV Urbani / Binding of serum 62 to looped/cyclic peptides of protein N of SARS-CoV Urbani / Binding of serum London to looped/cyclic peptides of protein N of SARS-CoV Urbani / Binding of serum SARS-green to looped/cyclic peptides of protein N of SARS-CoV Urbani: unit not given here
[2] = test system: rabbit serum obtained by immunizing a rabbit with the SARS-CoV strain Frankfurt 1; format: binding; set-up: Binding of a rabbit serum to linear peptides / Binding of a rabbit serum to looped peptides / Rabbit serum linear peptides / Rabbit serum looped peptides / Binding of a rabbit serum to linear peptides of protein N of SARS-CoV Urbani (Rabbit serum linear peptides) / Binding of a rabbit serum to looped/cyclic peptides of protein N of SARS-CoV Urbani (Rabbit serum looped peptides): unit not given here
[3] = test system: control sera (pooled serum of ten healthy LUMC hospital workers; commercial negative donor pooled serum from the Dutch bloodbank); format: binding, human; set-up: Binding of Control serum LUMC to linear peptides / Binding of Control serum Blood-bank to linear peptides / Binding of Control serum LUMC to looped peptides / Binding of Control Serum Blood-Bank to Looped peptides / Binding of Control serum LUMC to linear peptides of the protein M of SARS-CoV Urbani / Binding of Control serum Blood-bank to linear peptides of the protein M of SARS-CoV Urbani / Binding of Control serum LUMC to looped peptides of the protein M of SARS-CoV Urbani / Binding of Control Serum Blood-Bank to Looped peptides of the protein M of SARS-CoV Urbani: unit not given here

Sequence: FAYSNRNRFLYIIKL
- Binding of serum 1a to linear peptides of protein M of SARS-CoV Urbani [1]: 0.6
- Binding of serum 1b to linear peptides of protein M of SARS-CoV Urbani [1]: 0.4
- Binding of serum 2 to linear peptides of protein M of SARS-CoV Urbani [1]: 0.7
- Binding of serum 6 to linear peptides of protein M of SARS-CoV Urbani [1]: 0.3
- Binding of serum 37 to linear peptides of protein M of SARS-CoV Urbani [1]: 0.7
- Binding of serum 62 to linear peptides of protein M of SARS-CoV Urbani [1]: 0.7
- Binding of serum London to linear peptides of protein M of SARS-CoV Urbani [1]: 0.3
- Binding of serum SARS-green to linear peptides of protein M of SARS-CoV Urbani [1]: 0.2
- Binding of serum SARS-yellow to linear peptides of protein M of SARS-CoV Urbani [1]: 0.1
- Recognition of the peptide by sera of SARS-CoV infected individuals, and form (linear, looped/cyclic) in which it is recognized [1]: recognized in looped/cyclic form
- Rabbit serum linear peptides [2]: 0.7
- Rabbit serum looped peptides [2]: 0.6
- Binding of Control Serum Blood-Bank to Looped peptides of the protein M of SARS-CoV Urbani [3]: 0.4
- Binding of Control serum Blood-bank to linear peptides of the protein M of SARS-CoV Urbani [3]: 0.6
- Binding of Control serum LUMC to linear peptides of the protein M of SARS-CoV Urbani [3]: 0.4
- Binding of Control serum LUMC to looped peptides of the protein M of SARS-CoV Urbani [3]: 0.6

Sequence: FGWLVIGVAFLAVFQ
- Binding of serum 1a to linear peptides of protein X1 of SARS-CoV Urbani [1]: 0.7
- Binding of serum 1a to looped/cyclic peptide (PEPSCAN-ELISA) [1]: 0.7
- Binding of serum 1b to linear peptides of protein X1 of SARS-CoV Urbani [1]: 0.5
- Binding of serum 1b to looped/cyclic peptide (PEPSCAN-ELISA) [1]: 0.8
- Binding of serum 2 to linear peptides of protein X1 of SARS-CoV Urbani [1]: 0.5
- Binding of serum 2 to looped/cyclic peptide (PEPSCAN-ELISA) [1]: 0.7
- Binding of serum 6 to linear peptides of protein X1 of SARS-CoV Urbani [1]: 0.4
- Binding of serum 6 to looped/cyclic peptide (PEPSCAN-ELISA) [1]: 0.5
- Binding of serum 37 to linear peptides of protein X1 of SARS-CoV Urbani [1]: 0.6
- Binding of serum 37 to looped/cyclic peptide (PEPSCAN-ELISA) [1]: 0.6
- Binding of serum 62 to linear peptides of protein X1 of SARS-CoV Urbani [1]: 0.6
- Binding of serum 62 to looped/cyclic peptide (PEPSCAN-ELISA) [1]: 0.7
- Binding of serum London to linear peptides of protein X1 of SARS-CoV Urbani [1]: 0.3
- Binding of serum London to looped/cyclic peptide (PEPSCAN-ELISA) [1]: 0.3
- Binding of serum SARS-green to linear peptides of protein X1 of SARS-CoV Urbani [1]: 0.1
- Binding of serum SARS-green to looped/cyclic peptide (PEPSCAN-ELISA) [1]: 0.4
- Binding of serum SARS-yellow to linear peptides of protein X1 of SARS-CoV Urbani [1]: 0.5
- Binding of serum SARS-yellow to looped/cyclic peptide (PEPSCAN-ELISA) [1]: 0.6
- Binding of a rabbit serum to linear peptides [2]: 1.2
- Binding of a rabbit serum to looped peptides [2]: 0.5
- Binding of Control Serum Blood-Bank to Looped peptides [3]: 0.6
- Binding of Control serum Blood-bank to linear peptides [3]: 0.5
- Binding of Control serum LUMC to linear peptides [3]: 0.5
- Binding of Control serum LUMC to looped peptides [3]: 0.7

Sequence: FHLVDFQVTIAEILI
- Binding of serum 1a to linear peptides of protein X3 of SARS-CoV Urbani [1]: 0.8
- Binding of serum 1a to looped/cyclic peptides of protein X3 of SARS-CoV Urbani [1]: 0.8
- Binding of serum 1b to linear peptides of protein X3 of SARS-CoV Urbani [1]: 0.6
- Binding of serum 1b to looped/cyclic peptides of protein X3 of SARS-CoV Urbani [1]: 0.4
- Binding of serum 2 to linear peptides of protein X3 of SARS-CoV Urbani [1]: 0.7
- Binding of serum 2 to looped/cyclic peptides of protein X3 of SARS-CoV Urbani [1]: 0.8
- Binding of serum 6 to linear peptides of protein X3 of SARS-CoV Urbani [1]: 0.4
- Binding of serum 6 to looped/cyclic peptides of protein X3 of SARS-CoV Urbani [1]: 0.5
- Binding of serum 37 to linear peptides of protein X3 of SARS-CoV Urbani [1]: 0.7
- Binding of serum 37 to looped/cyclic peptides of protein X3 of SARS-CoV Urbani [1]: 0.7
- Binding of serum 62 to linear peptides of protein X3 of SARS-CoV Urbani [1]: 0.6
- Binding of serum 62 to looped/cyclic peptides of protein X3 of SARS-CoV Urbani [1]: 0.7
- Binding of serum London to linear peptides of protein X3 of SARS-CoV Urbani [1]: 0.6
- Binding of serum London to looped/cyclic peptides of protein X3 of SARS-CoV Urbani [1]: 0.2
- Binding of serum SARS-green to linear peptides of protein X3 of SARS-CoV Urbani [1]: 0.5
- Binding of serum SARS-green to looped/cyclic peptides of protein X3 of SARS-CoV Urbani [1]: 0.3
- Binding of serum SARS-yellow to linear peptides of protein X3 of SARS-CoV Urbani [1]: 0.9
- Binding of serum SARS-yellow to looped/cyclic peptides of protein X3 of SARS-CoV Urbani [1]: 0.8
- Rabbit serum linear peptides [2]: 0.3
- Rabbit serum looped peptides [2]: 0.5
- Binding of Control Serum Blood-Bank to Looped peptides of the protein X3 of SARS-CoV Urbani [3]: 0.7
- Binding of Control serum Blood-bank to linear peptides of the protein X3 of SARS-CoV Urbani [3]: 0.8
- Binding of Control serum LUMC to linear peptides of the protein X3 of SARS-CoV Urbani [3]: 0.6
- Binding of Control serum LUMC to looped peptides of the protein X3 of SARS-CoV Urbani [3]: 0.8

Sequence: FHRWHTMVQTCTPNV
- Binding of serum 1a to linear peptides of protein X5 of SARS-CoV Urbani [1]: 0.8
- Binding of serum 1a to looped/cyclic peptides of protein X5 of SARS-CoV Urbani [1]: 0.7
- Binding of serum 1b to linear peptides of protein X5 of SARS-CoV Urbani [1]: 0.7
- Binding of serum 1b to looped/cyclic peptides of protein X5 of SARS-CoV Urbani [1]: 0.6
- Binding of serum 2 to linear peptides of protein X5 of SARS-CoV Urbani [1]: 0.9
- Binding of serum 2 to looped/cyclic peptides of protein X5 of SARS-CoV Urbani [1]: 0.6
- Binding of serum 6 to linear peptides of protein X5 of SARS-CoV Urbani [1]: 0.5
- Binding of serum 6 to looped/cyclic peptides of protein X5 of SARS-CoV Urbani [1]: 0.3
- Binding of serum 37 to linear peptides of protein X5 of SARS-CoV Urbani [1]: 0.7
- Binding of serum 37 to looped/cyclic peptides of protein X5 of SARS-CoV Urbani [1]: 0.5
- Binding of serum 62 to linear peptides of protein X5 of SARS-CoV Urbani [1]: 0.7
- Binding of serum 62 to looped/cyclic peptides of protein X5 of SARS-CoV Urbani [1]: 0.4
- Binding of serum London to linear peptides of protein X5 of SARS-CoV Urbani [1]: 0.7
- Binding of serum London to looped/cyclic peptides of protein X5 of SARS-CoV Urbani [1]: 0.2
- Binding of serum SARS-green to linear peptides of protein X5 of SARS-CoV Urbani [1]: 0.5
- Binding of serum SARS-green to looped/cyclic peptides of protein X5 of SARS-CoV Urbani [1]: 0.5
- Binding of serum SARS-yellow to linear peptides of protein X5 of SARS-CoV Urbani [1]: 0.4
- Binding of serum SARS-yellow to looped/cyclic peptides of protein X5 of SARS-CoV Urbani [1]: 0.4
- Rabbit serum linear peptides [2]: 0.8
- Rabbit serum looped peptides [2]: 0.4
- Binding of Control Serum Blood-Bank to Looped peptides [3]: 0.4
- Binding of Control serum Blood-bank to linear peptides [3]: 0.7
- Binding of Control serum LUMC to linear peptides [3]: 0.5
- Binding of Control serum LUMC to looped peptides [3]: 0.5

Sequence: FIRQEEVQQELYSPL
- Binding of serum 1a to linear peptides of protein X4 of SARS-CoV Urbani [1]: 0.8
- Binding of serum 1b to linear peptides of protein X4 of SARS-CoV Urbani [1]: 0.6
- Binding of serum 2 to linear peptides of protein X4 of SARS-CoV Urbani [1]: 0.5
- Binding of serum 6 to linear peptides of protein X4 of SARS-CoV Urbani [1]: 0.5
- Binding of serum 37 to linear peptides of protein X4 of SARS-CoV Urbani [1]: 0.8
- Binding of serum 62 to linear peptides of protein X4 of SARS-CoV Urbani [1]: 0.7
- Binding of serum London to linear peptides of protein X4 of SARS-CoV Urbani [1]: 0.7
- Binding of serum SARS-green to linear peptides of protein X4 of SARS-CoV Urbani [1]: 0.5
- Binding of serum SARS-yellow to linear peptides of protein X4 of SARS-CoV Urbani [1]: 0.7
- Recognition of the peptide by sera of SARS-CoV infected individuals, and form (linear, looped/cyclic) in which it is recognized [1]: recognized in looped/cyclic form
- Rabbit serum linear peptides [2]: 0.5
- Rabbit serum looped peptides [2]: 0.5
- Binding of Control Serum Blood-Bank to Looped peptides [3]: 0.9
- Binding of Control serum Blood-bank to linear peptides [3]: 0.7
- Binding of Control serum LUMC to linear peptides [3]: 0.7
- Binding of Control serum LUMC to looped peptides [3]: 0.9
